Key:
Assay in all cases: KINOMEscan (ScanMAX) kinase profiling
Type in all cases: binding
[1] = biological target: T1, panel of 468 kinases (Homo sapiens, UniProt P23443); conditions: S6K1; 1 μM; read-out: % control
T1 construct: purchased KINOMEscan (ScanMAX) service
Description: (§1) The kinase selectivity of inventive compounds 12, 75, and 77 was evaluated by KINOMEscan®. KINOMEscan® (ScanMAX™) analysis was performed against a near comprehensive panel of 468 kinases. The control percentage (% control) for inventive compounds at 1 μM in DMSO was determined by Equation 1: % control=(inventive compound−positive control)/(negative control−positive control)×100%, Equation 1
(§2) wherein the positive control is a compound with a % control value of 0% relative light units (RLU), and the negative control (i.e., DMSO) has % control value of 100% RLU. The enzyme selectivity in the present invention is defined as follows: inventive compounds are considered active for an enzyme when the observed % control is less than 35% (<35%).

[2] = biological target: T2, panel of 468 kinases (Homo sapiens, UniProt P27361); conditions: ERK1; 1 μM; read-out: % control
T2 construct: purchased KINOMEscan (ScanMAX) service
T2 sequence (P27361 whole entry): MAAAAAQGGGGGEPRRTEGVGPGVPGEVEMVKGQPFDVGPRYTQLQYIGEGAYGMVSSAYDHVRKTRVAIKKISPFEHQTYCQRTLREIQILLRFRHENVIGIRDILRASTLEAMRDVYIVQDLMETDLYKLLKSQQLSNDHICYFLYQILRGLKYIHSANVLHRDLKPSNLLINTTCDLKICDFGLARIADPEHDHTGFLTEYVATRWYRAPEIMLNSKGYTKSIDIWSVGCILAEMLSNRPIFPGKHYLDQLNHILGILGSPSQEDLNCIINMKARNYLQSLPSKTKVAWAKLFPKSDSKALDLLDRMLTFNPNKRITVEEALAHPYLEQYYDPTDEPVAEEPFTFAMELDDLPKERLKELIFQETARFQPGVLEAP
Description: as §1, §2

[3] = biological target: T3, panel of 468 kinases (Homo sapiens, UniProt Q9P286); conditions: PAK7; 1 μM; read-out: % control
T3 construct: purchased KINOMEscan (ScanMAX) service
T3 sequence (Q9P286 whole entry): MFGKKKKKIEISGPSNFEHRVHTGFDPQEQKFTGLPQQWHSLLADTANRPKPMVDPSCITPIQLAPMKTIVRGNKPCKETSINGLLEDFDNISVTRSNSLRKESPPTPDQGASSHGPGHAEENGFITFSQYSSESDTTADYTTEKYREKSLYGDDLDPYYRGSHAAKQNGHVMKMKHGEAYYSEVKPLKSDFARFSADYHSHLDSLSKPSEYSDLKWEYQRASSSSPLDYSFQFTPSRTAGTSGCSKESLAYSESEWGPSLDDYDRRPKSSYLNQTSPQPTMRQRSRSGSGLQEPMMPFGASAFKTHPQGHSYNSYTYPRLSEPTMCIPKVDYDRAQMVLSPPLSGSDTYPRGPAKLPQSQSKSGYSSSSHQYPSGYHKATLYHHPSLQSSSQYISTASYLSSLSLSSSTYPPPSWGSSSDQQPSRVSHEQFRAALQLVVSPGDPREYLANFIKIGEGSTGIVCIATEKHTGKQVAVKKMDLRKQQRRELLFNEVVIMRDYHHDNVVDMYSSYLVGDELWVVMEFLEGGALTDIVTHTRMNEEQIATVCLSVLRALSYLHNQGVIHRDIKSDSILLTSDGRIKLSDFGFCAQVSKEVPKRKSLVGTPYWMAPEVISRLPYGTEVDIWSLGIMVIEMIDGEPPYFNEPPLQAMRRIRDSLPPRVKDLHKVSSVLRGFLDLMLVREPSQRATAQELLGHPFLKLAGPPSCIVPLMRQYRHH
Description: as §1, §2

[4] = biological target: T4, panel of 468 kinases (Homo sapiens, UniProt P42336, M1043I); conditions: PIK3CA(M1043I); 1 μM; read-out: % control
T4 construct: purchased KINOMEscan (ScanMAX) service
T4 sequence (P42336 whole entry M1043I): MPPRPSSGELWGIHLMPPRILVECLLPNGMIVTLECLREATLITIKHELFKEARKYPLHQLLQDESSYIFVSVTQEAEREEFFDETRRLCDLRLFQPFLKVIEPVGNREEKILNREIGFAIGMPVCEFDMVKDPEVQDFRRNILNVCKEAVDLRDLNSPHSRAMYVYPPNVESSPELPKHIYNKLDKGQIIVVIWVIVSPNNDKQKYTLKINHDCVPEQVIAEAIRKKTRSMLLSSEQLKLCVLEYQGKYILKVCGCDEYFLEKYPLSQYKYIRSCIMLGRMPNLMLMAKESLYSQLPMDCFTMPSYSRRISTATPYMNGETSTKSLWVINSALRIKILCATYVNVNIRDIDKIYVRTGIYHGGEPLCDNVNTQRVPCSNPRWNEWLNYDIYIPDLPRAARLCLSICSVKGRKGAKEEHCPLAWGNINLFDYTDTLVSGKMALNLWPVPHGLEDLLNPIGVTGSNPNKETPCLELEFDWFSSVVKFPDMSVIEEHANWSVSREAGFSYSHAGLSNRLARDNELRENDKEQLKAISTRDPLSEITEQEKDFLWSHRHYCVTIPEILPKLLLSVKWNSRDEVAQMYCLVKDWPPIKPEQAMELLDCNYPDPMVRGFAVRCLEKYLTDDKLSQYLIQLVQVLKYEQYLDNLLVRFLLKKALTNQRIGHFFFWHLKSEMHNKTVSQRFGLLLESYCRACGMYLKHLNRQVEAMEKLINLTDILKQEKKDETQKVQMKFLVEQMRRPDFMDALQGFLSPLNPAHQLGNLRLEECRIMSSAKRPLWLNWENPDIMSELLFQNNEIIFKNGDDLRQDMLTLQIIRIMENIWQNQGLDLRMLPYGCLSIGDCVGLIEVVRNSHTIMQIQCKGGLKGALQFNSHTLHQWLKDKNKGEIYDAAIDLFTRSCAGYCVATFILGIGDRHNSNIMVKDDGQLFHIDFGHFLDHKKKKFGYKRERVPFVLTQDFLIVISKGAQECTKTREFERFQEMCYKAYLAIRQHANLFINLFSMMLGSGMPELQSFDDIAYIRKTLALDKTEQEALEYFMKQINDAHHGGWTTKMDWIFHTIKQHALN
Description: as §1, §2

[5] = biological target: T5, panel of 468 kinases (Homo sapiens, UniProt P54753); conditions: EPHB3; 1 μM; read-out: % control
T5 construct: purchased KINOMEscan (ScanMAX) service
T5 sequence (P54753 34-998): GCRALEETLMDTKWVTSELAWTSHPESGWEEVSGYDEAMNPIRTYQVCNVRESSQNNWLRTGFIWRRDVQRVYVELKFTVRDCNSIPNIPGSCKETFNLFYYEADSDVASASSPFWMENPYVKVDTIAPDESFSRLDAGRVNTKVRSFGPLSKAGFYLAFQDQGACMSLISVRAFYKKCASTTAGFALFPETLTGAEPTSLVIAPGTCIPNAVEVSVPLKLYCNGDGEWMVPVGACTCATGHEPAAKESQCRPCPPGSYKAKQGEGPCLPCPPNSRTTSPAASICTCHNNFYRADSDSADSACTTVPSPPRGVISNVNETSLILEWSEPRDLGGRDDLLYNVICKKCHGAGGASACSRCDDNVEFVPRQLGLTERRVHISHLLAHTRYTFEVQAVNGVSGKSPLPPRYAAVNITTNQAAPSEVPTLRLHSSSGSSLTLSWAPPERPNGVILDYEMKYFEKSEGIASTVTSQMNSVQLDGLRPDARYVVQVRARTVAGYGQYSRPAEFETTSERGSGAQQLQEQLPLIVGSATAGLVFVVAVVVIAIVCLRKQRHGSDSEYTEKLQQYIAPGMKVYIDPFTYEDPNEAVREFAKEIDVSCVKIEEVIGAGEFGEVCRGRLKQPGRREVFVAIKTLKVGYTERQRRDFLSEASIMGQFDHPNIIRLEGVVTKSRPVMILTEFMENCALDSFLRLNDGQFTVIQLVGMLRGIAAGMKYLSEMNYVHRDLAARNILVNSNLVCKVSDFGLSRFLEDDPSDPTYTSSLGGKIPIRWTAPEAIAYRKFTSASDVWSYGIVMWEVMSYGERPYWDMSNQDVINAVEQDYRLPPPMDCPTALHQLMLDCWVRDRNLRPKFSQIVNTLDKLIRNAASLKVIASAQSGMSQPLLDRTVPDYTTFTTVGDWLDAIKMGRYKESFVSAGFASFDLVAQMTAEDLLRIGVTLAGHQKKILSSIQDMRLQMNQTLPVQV
Description: as §1, §2

[6] = biological target: T6, panel of 468 kinases (Homo sapiens, UniProt P54756); conditions: EPHA5; 1 μM; read-out: % control
T6 construct: purchased KINOMEscan (ScanMAX) service
Description: as §1, §2

[7] = biological target: T7, panel of 468 kinases (Homo sapiens, UniProt P51817); conditions: PRKX; 1 μM; read-out: % control
T7 construct: purchased KINOMEscan (ScanMAX) service
T7 sequence (P51817 1-358): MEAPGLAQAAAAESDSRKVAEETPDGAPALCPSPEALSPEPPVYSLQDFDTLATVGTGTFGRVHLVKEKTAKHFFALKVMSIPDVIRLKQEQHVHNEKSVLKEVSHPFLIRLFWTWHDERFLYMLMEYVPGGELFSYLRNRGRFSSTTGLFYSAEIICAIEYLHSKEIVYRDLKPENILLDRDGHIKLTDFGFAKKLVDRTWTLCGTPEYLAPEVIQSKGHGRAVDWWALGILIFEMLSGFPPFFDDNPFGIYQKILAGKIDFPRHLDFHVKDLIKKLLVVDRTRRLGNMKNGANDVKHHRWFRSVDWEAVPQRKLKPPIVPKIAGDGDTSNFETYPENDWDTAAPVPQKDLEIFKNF
Description: as §1, §2

[8] = biological target: T8, panel of 468 kinases (Homo sapiens, UniProt Q9HC98); conditions: NEK6; 1 μM; read-out: % control
T8 construct: purchased KINOMEscan (ScanMAX) service
T8 sequence (Q9HC98 whole entry): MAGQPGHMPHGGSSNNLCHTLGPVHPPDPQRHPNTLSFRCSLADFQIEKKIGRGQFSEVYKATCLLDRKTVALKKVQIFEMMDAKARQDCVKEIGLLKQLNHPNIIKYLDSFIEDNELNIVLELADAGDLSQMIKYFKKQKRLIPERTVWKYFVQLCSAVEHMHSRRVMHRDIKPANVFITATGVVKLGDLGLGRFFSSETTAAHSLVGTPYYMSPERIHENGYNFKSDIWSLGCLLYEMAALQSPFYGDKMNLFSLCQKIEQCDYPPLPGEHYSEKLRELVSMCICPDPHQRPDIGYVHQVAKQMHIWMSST
Description: as §1, §2

[9] = biological target: T9, panel of 468 kinases (Homo sapiens, UniProt Q9P2K8, S808G); conditions: GCN2(Kin.Dom.2,S808G); 1 μM; read-out: % control
T9 construct: purchased KINOMEscan (ScanMAX) service
Description: as §1, §2

[10] = biological target: T10, panel of 468 kinases (Homo sapiens, UniProt P35916); conditions: FLT4; 1 μM; read-out: % control
T10 construct: purchased KINOMEscan (ScanMAX) service
Description: as §1, §2

[11] = biological target: T11, panel of 468 kinases (Homo sapiens, UniProt Q5VT25); conditions: MRCKA; 1 μM; read-out: % control
T11 construct: purchased KINOMEscan (ScanMAX) service
T11 sequence (Q5VT25 whole entry): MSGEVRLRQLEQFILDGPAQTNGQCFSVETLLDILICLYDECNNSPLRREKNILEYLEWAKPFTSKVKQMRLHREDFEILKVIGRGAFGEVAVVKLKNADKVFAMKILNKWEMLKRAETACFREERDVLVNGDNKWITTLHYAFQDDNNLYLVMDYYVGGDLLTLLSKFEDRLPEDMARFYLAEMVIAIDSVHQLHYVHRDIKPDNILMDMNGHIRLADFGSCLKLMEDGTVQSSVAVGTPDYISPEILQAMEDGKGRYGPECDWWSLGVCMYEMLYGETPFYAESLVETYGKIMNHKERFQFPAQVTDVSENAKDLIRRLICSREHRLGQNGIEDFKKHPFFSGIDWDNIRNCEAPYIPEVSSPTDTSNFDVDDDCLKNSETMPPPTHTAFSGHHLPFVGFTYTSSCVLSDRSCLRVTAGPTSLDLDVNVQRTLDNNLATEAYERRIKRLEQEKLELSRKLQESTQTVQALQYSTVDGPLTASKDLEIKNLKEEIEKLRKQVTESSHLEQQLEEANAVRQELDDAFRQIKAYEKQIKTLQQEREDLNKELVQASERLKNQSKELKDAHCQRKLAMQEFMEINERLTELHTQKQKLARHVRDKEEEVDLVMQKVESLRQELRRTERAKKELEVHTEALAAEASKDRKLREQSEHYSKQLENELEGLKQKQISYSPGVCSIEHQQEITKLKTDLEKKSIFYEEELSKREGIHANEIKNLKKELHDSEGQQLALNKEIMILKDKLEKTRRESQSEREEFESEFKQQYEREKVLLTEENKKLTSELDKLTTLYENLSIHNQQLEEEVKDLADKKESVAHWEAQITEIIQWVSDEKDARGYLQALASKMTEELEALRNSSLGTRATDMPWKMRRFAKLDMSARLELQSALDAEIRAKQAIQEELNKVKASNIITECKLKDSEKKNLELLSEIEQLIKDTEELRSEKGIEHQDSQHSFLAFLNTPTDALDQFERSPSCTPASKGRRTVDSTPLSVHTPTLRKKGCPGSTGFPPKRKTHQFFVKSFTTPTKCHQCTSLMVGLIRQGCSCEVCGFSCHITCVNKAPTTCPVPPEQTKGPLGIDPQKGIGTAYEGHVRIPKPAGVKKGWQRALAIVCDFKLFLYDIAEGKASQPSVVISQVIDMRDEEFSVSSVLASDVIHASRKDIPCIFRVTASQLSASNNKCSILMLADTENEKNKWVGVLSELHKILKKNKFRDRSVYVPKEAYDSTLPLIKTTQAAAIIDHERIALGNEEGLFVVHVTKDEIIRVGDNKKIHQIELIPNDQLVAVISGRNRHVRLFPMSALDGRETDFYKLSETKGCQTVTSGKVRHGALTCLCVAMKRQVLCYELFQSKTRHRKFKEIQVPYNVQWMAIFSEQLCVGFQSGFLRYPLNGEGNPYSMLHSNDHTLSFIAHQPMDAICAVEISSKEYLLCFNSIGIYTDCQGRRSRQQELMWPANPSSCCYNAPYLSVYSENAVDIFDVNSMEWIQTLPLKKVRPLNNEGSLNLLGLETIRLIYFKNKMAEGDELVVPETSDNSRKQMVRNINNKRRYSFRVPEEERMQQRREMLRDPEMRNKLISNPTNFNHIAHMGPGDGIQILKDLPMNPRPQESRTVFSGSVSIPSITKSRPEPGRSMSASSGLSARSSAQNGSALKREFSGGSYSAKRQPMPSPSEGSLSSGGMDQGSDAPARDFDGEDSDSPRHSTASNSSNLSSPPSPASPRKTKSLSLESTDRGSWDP
Description: as §1, §2

T1 sequence (P23443 whole entry): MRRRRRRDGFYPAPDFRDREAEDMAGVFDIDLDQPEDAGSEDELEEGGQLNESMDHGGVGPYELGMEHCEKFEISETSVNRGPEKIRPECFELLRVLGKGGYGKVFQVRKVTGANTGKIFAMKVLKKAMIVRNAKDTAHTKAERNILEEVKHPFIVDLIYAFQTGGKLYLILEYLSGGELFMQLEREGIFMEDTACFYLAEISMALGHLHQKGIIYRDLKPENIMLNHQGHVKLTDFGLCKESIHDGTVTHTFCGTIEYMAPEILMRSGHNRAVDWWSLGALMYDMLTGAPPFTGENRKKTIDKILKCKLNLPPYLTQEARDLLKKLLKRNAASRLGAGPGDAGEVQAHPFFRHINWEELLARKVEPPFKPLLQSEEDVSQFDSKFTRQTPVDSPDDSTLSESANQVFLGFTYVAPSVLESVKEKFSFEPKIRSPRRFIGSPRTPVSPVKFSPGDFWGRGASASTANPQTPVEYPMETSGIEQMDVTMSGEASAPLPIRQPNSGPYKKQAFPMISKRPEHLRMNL

Compound	remaining binding at 1 µM [1] [%]	remaining binding at 1 µM [2] [%]	remaining binding at 1 µM [3] [%]	remaining binding at 1 µM [4] [%]	remaining binding at 1 µM [5] [%]	remaining binding at 1 µM [6] [%]	remaining binding at 1 µM [7] [%]	remaining binding at 1 µM [8] [%]	remaining binding at 1 µM [9] [%]	remaining binding at 1 µM [10] [%]	remaining binding at 1 µM [11] [%]
CNc1nc(Nc2ccc(S(=O)(=O)N3CCC(N4CCOCC4)CC3)cc2OC)nc2[nH]cc(Cl)c12 [Compound 12, 5-chloro-N2-(2-methoxy-4-((4-morpholinopiperidin-1-yl)sulfonyl)phenyl)-N4-methyl-7H-pyrrolo[2,3-d]pyrimidine-2,4-diamine]	100	100	100	98	100	100	87	100	88	100	100
CNc1nc(Nc2ccc(P3(=O)CCN(C4CCOCC4)CC3)cc2OC)nc2[nH]cc(Cl)c12 [Compound 77, 4-(4-((5-chloro-4-(methylamino)-7H-pyrrolo[2,3-d]pyrimidin-2-yl)amino)-3-methoxyphenyl)-1-(tetrahydro-2H-pyran-4-yl)-1,4-azaphosphinane 4-oxide]	98	100	100	96	100	100	96	100	78	100	92
CNc1nc(Nc2ccc(C(=O)N3CCC(N4CCOCC4)CC3)c3c2OCO3)nc2[nH]cc(Cl)c12 [Compound 75, (7-((5-chloro-4-(methylamino)-7H-pyrrolo[2,3-d]pyrimidin-2-yl)amino)benzo[d][1,3]dioxol-4-yl)(4-morpholinopiperidin-1-yl)methanone]	63	100	97	99	100	100	92	100	31	100	100
